Reference: PubChem BioAssay (NCI)
Values joined by “and” are separate entries in the source; they are usually repeats but may differ in a detail not shown here. Equal entries are not always repeated.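 A five-concentration, 48-hour dose response in 96-well plates underlies each endpoint, interpolated linearly between surrounding concentrations. GI50 = concentration required for 50% inhibition of growth. At the TGI there is no net growth.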

Tests used:
Assay in all cases: inhibition of tumour cell growth, NCI panel, 48 h
NCI-H460 lung = test system: NCI-H460 lung
NCI/ADR-RES ovarian = test system: NCI/ADR-RES ovarian
COLO 205 colon = test system: COLO 205 colon
DU-145 prostate = test system: DU-145 prostate
SK-OV-3 ovarian = test system: SK-OV-3 ovarian
T-47D breast = test system: T-47D breast
UO-31 renal = test system: UO-31 renal
RXF 393 renal = test system: RXF 393 renal

| Structure (SMILES) | GI50 (NCI-H460 lung) | TGI (NCI-H460 lung) | GI50 (NCI/ADR-RES ovarian) | TGI (NCI/ADR-RES ovarian) | GI50 (COLO 205 colon) | TGI (COLO 205 colon) | GI50 (DU-145 prostate) | TGI (DU-145 prostate) | GI50 (SK-OV-3 ovarian) | TGI (SK-OV-3 ovarian) | GI50 (T-47D breast) | TGI (T-47D breast) | GI50 (UO-31 renal) | TGI (UO-31 renal) | GI50 (RXF 393 renal) | TGI (RXF 393 renal) |
| --- | --- | --- | --- | --- | --- | --- | --- | --- | --- | --- | --- | --- | --- | --- | --- | --- |
| COc1cc(-c2nn(-c3ccc(NC(=O)Nc4cc(C(F)(F)F)cc(C(F)(F)F)c4)cc3)cc2-c2ccncc2)ccc1Cl | 1.75 µM | 3.88 µM | 2 µM | 7.38 µM | 1.6 µM | 3.32 µM | 3.39 µM | 11.2 µM | 1.55 µM | 3.09 µM | 1.96 µM | 7.77 µM | 1.34 µM | 3.22 µM | 1.61 µM | 3.58 µM |
| O=C1C=C(NCCO)c2nccc3c2c1nc1ccccc13 | 6.04 µM | 40.9 µM | 32 µM | > 100 µM | 14.8 µM | > 100 µM | 24.8 µM | > 100 µM | 80.1 µM | > 100 µM | 46.2 µM | > 100 µM | 24.6 µM | > 100 µM | 28.2 µM | 89.4 µM |
| Cn1c(CCCC(=O)O)nc2cc(N(CCCl)CCCl)ccc21 | 58.7 µM | > 100 µM | 98.2 µM | > 100 µM | > 95.8 µM | > 100 µM | > 80.6 µM | > 100 µM | > 86.4 µM | > 100 µM | 56.2 µM | > 100 µM | > 100 µM | > 100 µM | > 100 µM | > 100 µM |
| C=CCn1c2ccccc2c2c3c(c4c5ccccc5n(CC=C)c4c21)C(=O)N(O)C3=O | 2.78 µM | 10.7 µM | 3.43 µM | 21.9 µM | 2.01 µM | 9.31 µM | 3.65 µM | > 100 µM | 3.22 µM | > 100 µM | 2.03 µM | 33.2 µM | 1.75 µM | 5 µM | 3.94 µM | 19.6 µM |
| c1ccc(-c2[nH]ncc2-c2ccnc(-c3ccc(OCCN4CCOCC4)cc3)c2)nc1 | > 25 µM | > 25 µM | > 25 µM | > 25 µM | > 25 µM | > 25 µM | > 25 µM | > 25 µM | > 25 µM | > 25 µM | > 25 µM | > 25 µM | 24.3 µM | > 25 µM | > 25 µM | > 25 µM |
| O=C(O)CCC(c1ccccc1)(c1ccccc1)c1ccccc1 | – | > 91.2 µM | – | > 100 µM | – | 97.6 µM | – | > 100 µM | – | > 100 µM | – | > 60.3 µM | – | > 100 µM | 49.5 µM | > 100 µM |
| O=C(/C=C/c1ccccc1)c1cccc2ccccc12 | 1.84 µM | 3.86 µM | 3.27 µM | 19.6 µM | 5.51 µM | 18.2 µM | 3.63 µM | 13 µM | 3.11 µM | 11.3 µM | 2.89 µM | 21.2 µM | 2.68 µM | 12.6 µM | 2.38 µM | 8.04 µM |
| C[C@]12CC[C@H](O[C@@H]3O[C@H](CO[C@@H]4O[C@H](CO)[C@@H](O)[C@H](O)[C@H]4O)[C@@H](O)[C@H](O)[C@H]3O)C[C@@H]1CC[C@@H]1[C@@H]2CC[C@]2(C)[C@@H](C3=CC(=O)OC3)CC[C@]12O | – | > 44.9 µM | – | 39.3 µM | – | > 76.9 µM | – | 26.4 µM | – | > 72.6 µM | – | > 95.7 µM | – | > 66.5 µM | – | 41.1 µM |
| CC[C@@H](C)/C=C(C)/C=C/C(=O)c1c(O)c(-c2ccc(OC(=O)[C@@]34CC[C@@](C)(C(=O)O3)C4(C)C)cc2)cn(O)c1=O | 1.28 µM | 7.56 µM | 1.46 µM | 10 µM | 15.2 µM | > 50 µM | 0.839 µM | > 50 µM | 7.48 µM | > 50 µM | 1.94 µM | > 50 µM | 1.32 µM | 7.89 µM | 1.81 µM | > 50 µM |
| C#C[C@@]1(O)[C@@H](CO)O[C@@H](n2cc(Br)c3c(Cl)ccnc32)[C@@H]1O | 4.29 µM | > 100 µM | 0.422 µM | 5.03 µM | 0.881 µM | > 100 µM | 0.454 µM | 4.79 µM | 3.66 µM | > 100 µM | 0.394 µM | > 19.9 µM | 2.16 µM | > 100 µM | 0.283 µM | 1.23 µM |
| O/N=C(\CC(O)(C(F)(F)F)C(F)(F)F)c1cccs1 | – | > 10 µM | – | > 10 µM | – | > 10 µM | – | > 10 µM | – | > 10 µM | – | > 10 µM | – | > 10 µM | – | > 10 µM |
| Cc1cc(O)ccc1C1=NN(c2ccc(S(N)(=O)=O)cc2)C(=O)CC1 | 2.19 µM and 6.16 µM | 50 µM and > 100 µM | 2.36 µM and 3.9 µM | 50 µM and 30 µM | 8.8 µM and 36.6 µM | 50 µM and > 100 µM | 15.1 µM and 46.3 µM | 50 µM and > 100 µM | 10.8 µM and 51.7 µM | 50 µM and > 100 µM | 3.23 µM and 13.1 µM | 50 µM and > 100 µM | 18.1 µM and 35.1 µM | 50 µM and > 100 µM | 6.31 µM and 13.7 µM | 50 µM and 42.1 µM |
| Oc1ccc2c(=S)cc(-c3ccc(Br)cc3)oc2c1O | 0.973 µM | 19 µM | 1.43 µM | 6.05 µM | 10.7 µM | 24.5 µM | 2.67 µM | > 100 µM | 2.6 µM | 8.5 µM | 1.27 µM | 5.15 µM | 1.02 µM | 6.66 µM | 2.51 µM | 8.78 µM |
| CC(=Nc1ccc(N(C)C)cc1)c1ccccc1 | – | > 100 µM | – | 68.4 µM | – | 34.9 µM | – | > 100 µM | – | > 100 µM | – | 55.4 µM | – | 40.7 µM | – | 20.6 µM |
| C=C1C(=O)O[C@H]2[C@H]1CC/C(COC(=O)c1cccnc1N)=C\CC[C@@]1(C)O[C@@H]21 | 3.09 µM | 10.8 µM | 4.56 µM | 39.9 µM | 1.77 µM | 3.68 µM | 2.45 µM | 12.7 µM | 12.2 µM | 73 µM | 1.85 µM | 8.01 µM | 2.17 µM | 10.2 µM | 1.53 µM | 3.78 µM |
| Cc1ccc(N(C=O)c2c([N+](=O)[O-])cc([N+](=O)[O-])c3c2=[N+]([O-])CN=3)cc1 | – | > 100 µM | – | 92.2 µM | – | 68.1 µM | – | 72.9 µM | – | > 100 µM | – | 39.7 µM | – | > 100 µM | – | 42 µM |
| CN1CCN(CCCNC(=O)c2c3c(n4ccccc24)C(=O)c2ncccc2C3=O)CC1 | 0.316 µM | 1.75 µM | 12 µM | 64.6 µM | 0.563 µM | 1.67 µM | 1.6 µM | 9.37 µM | 3.46 µM | 19.6 µM | 1.88 µM | 5.28 µM | 1.81 µM | 30.7 µM | 1.52 µM | 10.4 µM |
| Cn1ncc(C#N)c1-c1ccc2c(c1)CN([C@H](CN)Cc1cccc(F)c1)C2=O | 0.752 µM | > 100 µM | > 100 µM | > 100 µM | 1.85 µM | 21 µM | 21.3 µM | > 100 µM | 0.255 µM | 13.2 µM | 0.0519 µM | 6.74 µM | 3.43 µM | 42.5 µM | 0.172 µM | 2.43 µM |
| O=S1(=O)c2ccccc2N(c2ccccc2)c2nnnn21 | – | > 100 µM | – | > 100 µM | – | 48.5 µM | – | > 100 µM | – | > 100 µM | – | > 100 µM | – | > 100 µM | – | 49.5 µM |
| CCN(CC)CCNC(=O)c1cccc2c1-c1ccccc1C2=O | > 100 µM | > 100 µM | > 100 µM | > 100 µM | > 100 µM | > 100 µM | > 100 µM | > 100 µM | > 100 µM | > 100 µM | > 100 µM | > 100 µM | > 100 µM | > 100 µM | > 100 µM | > 100 µM |
| CC(C)(C)[Si](C)(C)OCC1OC(n2cnc3c(=O)[nH]cnc32)CC1O (centres undefined) | – | > 100 µM | – | > 100 µM | – | > 100 µM | – | > 100 µM | – | > 100 µM | – | > 100 µM | – | > 100 µM | – | > 100 µM |
| O=C1/C(=C\c2ccc(F)cc2)CN(C(=O)c2ccccc2F)C/C1=C\c1ccc(F)cc1 | 2.51 µM | 6.71 µM | 2.8 µM | 16.4 µM | 1.86 µM | 3.54 µM | 2.07 µM | 4.15 µM | 2.23 µM | 4.69 µM | 2.28 µM | 7.02 µM | 1.49 µM | 2.94 µM | 1.78 µM | 3.54 µM |
| COc1ccc(Cn2cc(COc3cc(/C=C/C(=O)c4cc(OC)c(OC)c(OC)c4)ccc3OC)nn2)cc1 | 4.39 µM | 40.4 µM | 3.49 µM | > 100 µM | 4.36 µM | > 100 µM | 2.41 µM | 5.2 µM | 3.02 µM | 9.18 µM | 3.41 µM | > 100 µM | 4.71 µM | > 100 µM | 2.29 µM | 6.88 µM |
| COC(=O)c1c[nH]c2cc(OC(C)C)c(OC(C)C)cc2c1=O | > 100 µM | > 100 µM | > 100 µM | > 100 µM | > 100 µM | > 100 µM | > 100 µM | > 100 µM | > 100 µM | > 100 µM | > 100 µM | > 100 µM | > 100 µM | > 100 µM | > 100 µM | > 100 µM |
